Test results as given in patent publication US8367620B2, “Peptidic growth hormone secretagogues analog compounds and preparations thereof” (Centro de Ingenieria Genetica y Biotecnologia, priority 2006, dated 2013).

What was measured:
lysozyme = test: Lysozyme levels in tilapia larvae treated by immersion; format: in vivo, Oreochromis sp.; conditions: immersion 100 μg/L
Experimental: (§1) Growth stimulation experiments on tilapia Oreochromis sp. larvae were performed evaluating groups of 100 larvae with 0.01 g average, using the peptidic GHS analogs, in a 100 μg/L concentration, twice a week using an immersion time of one hour.
During this experiment lysozyme levels were also monitored and an increase of this immunity marker was obtained in the treated animals as shown in table 8.

PC12 cells = format: cell-based; conditions: differentiated PC12 cells, 72 h incubation, MTT; read-out: IC50 during the NGF deprivation induced neuronal death
Experimental: PC12 cells were stored in 75 cm^2 culture flasks on DMEM containing 5% bovine foetal serum and 10% horse serum, with 50 μg/ml gentamicin. Cells were incubated at 37° C. in 5% CO2. To induce differentiation cells were transferred at a density of 1×10^4 to polylysine covered 96 well plates in NGF supplemented DMEM media for 7 days, with medium replacement every 2-3 days. After differentiation cells were incubated with peptidic GHS analog compounds, at different concentrations for 72 h. Cell survival and proliferation was determined using the Promega non-radioactive cytotoxicity proliferation assay, Cell Titer 96, based in the conversion of 3-(4,5-dimethylthiazole-2-yl)-2,5-diphenyltetrazolium bromide (MTT) in to a spectrophotometrically detectable product. After deprivation of NGF medium is removed and 15 μl of the DMEM dissolved dye is added, after 4 hours of 37° C. incubation 100 μl of the stopping solution is added and absorbance is measured at 570 nm

[1] = test system: primary cultures of granular cerebellum cells; format: cell-based, Wistar rats; conditions: 500 μM hydrogen peroxide, rat cerebellum granular cells; read-out: IC50 during the induced neuronal damage by Hydrogen Peroxide addition to a primary culture of neurons
Experimental: Primary cultures of granular cerebellum cells were obtained from 7-9 days Wistar rats. After a rapid dissection, rat cerebellums were submerged in a cold solution and meningeal membranes were removed, each organ was transferred to a 2-3 ml fresh medium solution and finely sliced. Cells were dissociated using a Pasteur pipette and filtered through a nylon […] membrane (Falcon, Franklin Lakes, N.J.). The number of viable cells was determined by cell counting in a hematocytometer with tripan blue as a marker. Cells were cultured on polylysine covered 96 well plates at a density of 6250 cells in […] final volume. Cultures were kept at 37° C. in 5%. CO2 after 24 h, 10 μM of cytosine arabinofuranose (AraC; Sigma) was added to inhibit the proliferation of non-neuronal cells. The capacity of neural damage prevention was tested adding 500 μM hydrogen peroxide in different concentrations of peptidic GHS analog compounds, Cell survival was determined using the Promega non-radioactive cytotoxicity proliferation assay, Cell Titer 96 (Promega).

[2] = test system: tilapia Oreochromis sp. larvae; test: Growth stimulation of tilapia larvae by immersion; format: in vivo; conditions: immersion 100 μg/L, one hour twice a week, three weeks
Experimental: as §1

IGF-I mRNA = IGF-I mRNA in liver and GH level of intraperitoneally injected tilapias; format: in vivo, tilapia; conditions: liver of intraperitoneally injected tilapias
Experimental: IGF-I mRNa was determined in the liver of intraperitoneally injected tilapias monitoring also the GH level time course, showing the peptidic GHS analog compounds as able to stimulate in fish the GH levels in the bloodstream and at incrementing the IGF-I mRNA levels after the injection of the compounds as shown in table 4.

tilapias = test: Growth acceleration on juvenile tilapias treated intraperitoneally; format: in vivo; conditions: juvenile tilapia, ip 0.1 μg/g twice a week, three weeks
Experimental: The compounds were dissolved in a sodium phosphate (PBS) buffer solution and injected twice a week, during three weeks at 0.1 μg/g of humid fish weight (gbw). Compounds were applied individually to a group of 10 male tilapias with an average weight of 60.41±10.36 g and a control group with an average weight of 60.58±19.67 g was receiving PBS only as a control, measuring the average weight every week, all animals in the experiment were labelled with microchips (Stoelting Co. Wood Dale, USA.). for proper identification.

[3] = test system: Post-larvae of Litopenaeus vanamei; test: Growth stimulation in shrimps by dietary supplementation; format: in vivo; conditions: compound at 1% in post-larvae crustacean diet
Experimental: The peptidic GHS analogs were included at 1% in a post-larvae crustacean diet. Post-larvae of Litopenaeus vanamei were fed with the aforementioned diet in parallel with a control group with 1% BSA addition. The effect was measured with an optical micrometer and weighing the animals in a 0.1 mg precision scale.

Litopenaeus vanamei = test: Growing of shrimp larvae by dipping in solution of the compounds; format: in vivo; conditions: four dips of one hour every three days, 0.1 g/L
Experimental: Shrimp larvae were subjected two four dips, for one hour every three days with different peptidic GHS analogs at 0.1 g/L. The control group was subjected to the same frequency of dipping with 1 mg/L BSA.

[4] = test system: Litopenaeus vanamei post-larvae; test: Growth of shrimp post-larvae fed Artemia-bioencapsulated compounds; format: in vivo; conditions: Artemia bioencapsulated (10 mh/L, one hour), fed four times a day for one month
Experimental: The peptidic GHS analogs were bioencapsulated in Artemia to be fed to Litopenaeus vanamei post-larvae. For the encapsulation the compounds were added in a 10 mh/L left for an hour, harvested and washed. The animals were fed four times a day for one month while the control group was fed with BSA encapsulated Artemia The effect was measured with an optical micrometer and weighing the animals in a 0.1 mg precision scale.

Sequence	Lysozyme levels of the treated animals relative to the control group (lysozyme)	IC50 (PC12 cells) [µM]	IC50 [1] [µM]	Weight Inc. (%), control group growing = 100% [2] [%]	Normalized IGF-I mRNA levels to a non related synthetic peptide control group (IGF-I mRNA)	Weight Inc. (%), control group growing = 100% (tilapias) [%]	Size Inc. (%), control group growing = 100% [3] [%]	Size Inc. (%), control group growing = 100% (Litopenaeus vanamei) [%]	Weight Inc. (%), control group growing = 100% (Litopenaeus vanamei) [%]	Size Inc. (%), control group growing = 100% [4] [%]
ALDFKPNIP [Compound A225, L-amino acid peptide with internal side-chain cycle, SEC; ID NO: 5]	1.43	4.07	3.99	98.0	1.38	120.0	130.0	112.6	121.0	130.0
GDAGAKLLSSR [Compound A234]	2.77	5.86	3.72	120.6	1.17	110.6	138.6	114.2	123.6	135.0
GEGYKLDERSQ [Compound A236, L-amino acid peptide with internal side-chain cycle, SEC; ID NO: 16]	1.42	3	3.33	105.0	1.13	99.0	137.0	112.0	121.0	138.0
GGEAGKLCPPRY [Compound A237, L-amino acid peptide with internal side-chain cycle, SEC; ID NO: 17]	1.01	3.33	2.51	109.9	1.201	100.0	132.0	116.2	127.0	136.0
GGGKFWDIPHH [Compound A231, L-amino acid peptide with internal side-chain cycle, SEC; ID NO: 11]	1.89	4	3.46	151.0	1.39	150.2	140.1	123.0	130.0	140.2
GKFDSPEHQ [Compound A230]	1.33	4.06	3.81	150.0	1.48	158.0	140.0	123.6	150.0	140.0
GLEFKLLHQ [Compound A238, L-amino acid peptide with internal side-chain cycle, SEC; ID NO: 18]	1.33	2.04	1	112.6	1.24	129.4	130.1	117.9	129.2	140.0
GMEAGIKLCHRQ [Compound A235, L-amino acid peptide with internal side-chain cycle, SEC; ID NO: 15]	1.90	2.05	1.01	90.0	0.9	89.9	137.0	112.5	121.0	134.2
HAKPGGIDPEQ [Compound A229, L-amino acid peptide with internal side-chain cycle, SEC; ID NO: 9]	1.15	3.41	1.33	125.0	1.09	126.5	140.0	115.9	126.1	140.0
HCKFDLDWH [Compound A223, L-amino acid peptide with internal side-chain cycle, SEC; ID NO: 3]	1.52	3.12	2.47	102.0	1.40	105.0	131.6	110.9	120.0	132.0
HGSKFDLEFG [Compound A222, L-amino acid peptide with internal side-chain cycle, SEC; ID NO: 2]	1.43	2.03	1.3	96.0	1.115	96.2	131.0	112.2	121.0	130.3
HKGIDSPEQH [Compound A232]	2.41	4.89	3.28	148.3	1.23	160.1	139.7	123.0	132.8	139.6
